Reference: PMC8049364, “Quantification of Macrophage-Driven Inflammation During Myocardial Infarction with ^18F-LW223, a Novel TSPO Radiotracer with Binding Independent of the rs6971 Human Polymorphism” (Journal of Nuclear Medicine, 2021)

What was measured:
[1] = tested on: TSPO; details: cited from earlier work
[2] = target: TSPO; assay: In vitro competition binding assay with ^3H-PK11195 in human heart homogenates (HAB, MAB, LAB); details: for Effect of rs6971 genetic polymorphism on Ki: human heart; for LAB/HAB ratio: human heart homogenates, rs6971 genotyped
Method: (§1) All studies using human tissue were conducted in accordance with the National Health Service Research Ethics Committee South East Scotland (Edinburgh Brain and Tissue Bank, 16/ES/0084). Supplemental Table 1 contains the Brain Bank Network reference number for all tissues used from the Edinburgh Brain and Tissue Bank. […] Samples were homogenized in ×10 w/v buffer (50 mM Tris-Base, pH 7.4, 4°C) before centrifugation (32,000g, 10 min, 4°C). Tissue pellets were then resuspended in ×10 w/v buffer and centrifuged again before resuspending in 2 mL of buffer. Samples were assessed for protein concentration using the Bio-Rad protein assay, aliquoted, and stored at −80°C until use. The competition binding assay protocol was adjusted from a previously reported protocol ([16]), as detailed within the supplemental materials.
(§2) In Vitro Human Competition Binding Assays
(§3) Briefly, 250 µg protein/mL in 200 µl of buffer was added to 100 µl of 1 nM 3H- […]
(§4) Aldrich, USA), PBR28 (ABX, Germany), AB5186 or LW223 at 14 different concentrations (0.001-3000 nM) for 90 min at 4 °C. Binding was terminated with the addition of ice cold buffer before being immediately filtered over a Whatman GF/B filters (Whatman, UK) pre-treated with 0.3% polyethylenimine (Sigma-Aldrich, USA) using a Brandel harvester (Brandel, USA). Filter paper was then removed, placed into 2.5 mL of Optiphase HiSafe 3 (Perkin Elmer, USA) and counted 48 hours later on a Hidex 300 SL (Hidex, Finland).
(§5) All binding assays were performed
(§6) GraphPad Prism version 6 (GraphPad Software, USA) was used to fit all binding affinity curves. A comparison of a one-site and two-site models was made using the least squares algorithm and model selection was compared using an F test. The null hypothesis (one-site fitting as more suitable) was rejected if p<0.05. Normalized mean […]
(§7) saturation binding results, Sup.Fig.2) was used to determine the best fitting model and to calculate LAB:HAB ratios. Affinity values (Ki) were calculated by fitting individual tissue

[3] = target: T1, TSPO (Homo sapiens, UniProt P30536); assay: In vitro competition binding assay with ^3H-PK11195 in human brain homogenates (HAB, MAB, LAB); details: for LAB/HAB ratio: human brain homogenates, rs6971 genotyped
Method: as §1, §2, §3, §4, §5, §6, §7

[4] = cited from earlier work
[5] = target: T1, TSPO; assay: In vitro competition binding assay with ^3H-PK11195 in human heart homogenates (HAB, MAB, LAB); details: human heart
Method: as §1, §2, §3, §4, §5, §6, §7

[6] = tested on: TSPO; details: humans; cited from earlier work
[7] = humans; cited from earlier work

T1 sequence (P30536 2-169): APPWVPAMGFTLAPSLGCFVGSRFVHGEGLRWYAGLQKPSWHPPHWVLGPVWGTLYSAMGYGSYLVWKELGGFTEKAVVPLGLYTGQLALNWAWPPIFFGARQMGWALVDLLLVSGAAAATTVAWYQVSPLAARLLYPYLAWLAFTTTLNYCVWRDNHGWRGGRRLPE

Row | Structure (SMILES) | VT in the brain [1] | Effect of rs6971 genetic polymorphism on Ki [2] | LAB/HAB ratio [2] | LAB/HAB ratio [3] | also measured
1 | CCN(CC)C(=O)[C@H]1CCCc2c1c1c(OC)cccc1n2CC[18F] [^18F-GE180, Flutriciclamide] | 0.10–0.28 mL/cm^3 |  |  |  | 
2 | CCN(CC)C(=O)c1nc2ccccc2c(-c2ccccc2)c1CF [AB5186] |  | affected | 7 | 9 | Effect of rs6971 genetic polymorphism on Ki ([3]; human brain): affected
3 | CN(C(=O)Cn1c(=O)oc2ccc(-c3ccc(OCC[18F])cc3)cc21)c1ccccc1 [^18F-FEBMP] |  |  |  |  | original parent compound found in blood ([4]; rats, 30 min after injection): less than 10%
4 | CC[C@@H](C)N(C)C(=O)c1nc2ccccc2c(-c2ccccc2)c1CF [LW223] |  | unaffected | 1 | 1 | Ki [5]: 1.7 nM; Effect of rs6971 genetic polymorphism on Ki ([3]; human brain): unaffected; Ki ([3]; human brain): 0.6 nM
5 | CCC(C)N([11CH3])C(=O)c1cc2ccccc2c(-c2ccccc2Cl)n1 (centres unmarked) [^11C-PK11195] | 0.6–0.74 mL/cm^3 |  |  |  | SUVpeak, heart [6]: 5; SUVpeak, lung [6]: 3; parent in plasma ([4]; same lower species (rat)): ~40%; parent free fraction in plasma [7]: 1%
6 | CC[C@@H](C)N([11CH3])C(=O)c1nc(-c2ccccc2Cl)c2ccccc2n1 [^11C-ER176] | 1.6–3.5 mL/cm^3 |  |  |  | parent free fraction in plasma [7]: 3.3%
7 | CCN(CC)C(=O)Cc1c(-c2ccc(OCCC[18F])cc2)nc2ccc(Cl)cn12 [^18F-PBR111] | 2.22–4.03 mL/cm^3 |  |  |  | 
8 | COc1ccccc1CN(C(C)=O)c1cnccc1Oc1ccccc1 [PBR28, reference compound] |  | affected | 48 | 48 | 
